From patent publication US20230284616A1, “FUNGICIDAL COMPOSITIONS” (SYNGENTA CROP PROTECTION AG, priority 2020, published 2023) come the findings set out here.

SMILES strings stand for the structures. Like-named read-outs stand apart in the source and are kept apart here. Numbered stars: 1 amine (or outer) side, 2 acyl side, 3 side chain; on linkers, the order of the positions; unused ones are H or OH. Square brackets hold non-standard residues; d marks the D form. Peptide text beside a SMILES is read from it. ξ: configuration not given here. ξNMeVal(3-OH) = CNC(C(=O)O)C(C)(C)O; NMeF = CN[CH](Cc1ccccc1)C(=O)O; X1 = CCC(C)C(O[*:1])C(=O)[*:2]; NMeV = CN[CH](C(=O)O)C(C)C

One experiment has as its system Alternaria solani. Kind of experiment: Liquid culture test in well plates, Alternaria solani (early blight of tomato/potato), Example 1-2. Format: cell-based. The method, then:
(§1) Mycelia fragments or conidia suspensions of a fungus, prepared either freshly from liquid cultures of the fungus or from cryogenic storage, are directly mixed into nutrient broth. DMSO solutions of the test compound (max. 10 mg/mL) is diluted with 0.025% Tween20 by factor 50 and 10 µL of this solution is pipetted into a microtiter plate (96-well format). […] The test plates are incubated in the dark at 24° C. and 96% relative humidity (rh). The inhibition of fungal growth is determined photometrically and visually after 3 - 7 days, depending on the pathosystem, and percent antifungal activity relative to the untreated check is calculated.
Conidia of the fungus from cryogenic storage were directly mixed into nutrient broth (PDB potato dextrose broth). After placing a DMSO solution of the test compositions into a microtiter plate (96-well format) the nutrient broth containing the fungal spores was added.

The test system of the next experiment is Botrytis cinerea. Kind of experiment: Liquid culture test in well plates, Botrytis cinerea (gray mould), Example 1-1. The settings on record: Cyprodinil 0.005 ppm alone, growth inhibition, photometric, 72 hours, read-out: (B) inhibition (%). The experiment is classed as cell-based. The method, then:
as §1
Conidia of the fungus from cryogenic storage were directly mixed into nutrient broth (PDB potato dextrose broth). After placing a DMSO solution of the test compositions into a microtiter plate (96-well format), the nutrient broth containing the fungal spores was added.

Setting [1] is: 48 h, read-out: (A) inhibition (%).

For the molecule `CCC(C)C1NC(=O)C2CCCN2C(=O)C(Cc2ccccc2)N(C)C(=O)C(Cc2ccccc2)NC(=O)C(C(C)C)N(C)C(=O)C(C(C)CC)OC(=O)C(C(C)(C)O)N(C)C(=O)C(CC(C)C)NC(=O)C(C(C)C)N(C)C1=O` (centres unmarked) [Aureobasidin A] (cyclo([ξNMeVal(3-OH)][X1][NMeV]F[NMeF]PI[NMeV]L); configuration not given here), in the experiment with Alternaria solani (setting [1]), the inhibition – broadly, the share of the control response that was lost under treatment – at 0.01 ppm worked out at 24%; the inhibition at 0.02 ppm was found to be 31%; the inhibition at 0.04 ppm was determined as 43%.
On to `Cc1cc(C2CC2)nc(Nc2ccccc2)n1` [Cyprodinil, cyprodinil, reference compound], for which the inhibition at 0.005 ppm in the experiment with Botrytis cinerea was found to be 34%. Further, in the experiment on Alternaria solani (Cyprodinil 0.04 ppm alone, 48 hours, read-out: (B) inhibition (%)), the inhibition at 0.04 ppm is 35%.
